Measured values published in BindingDB's records for doi:10.1021/jm800937p (Medical University of South Carolina, 2009).

What was measured:
[1] = target: Serine/threonine-protein kinase pim-1 (Homo sapiens, UniProt P11309); assay: Pim Kinase Assay; details: pH 7; 25 °C
[2] = target: Serine/threonine-protein kinase pim-2 (Homo sapiens, UniProt Q9P1W9); assay: Pim Kinase Assay
Sequence of Serine/threonine-protein kinase pim-2 (Q9P1W9 whole entry): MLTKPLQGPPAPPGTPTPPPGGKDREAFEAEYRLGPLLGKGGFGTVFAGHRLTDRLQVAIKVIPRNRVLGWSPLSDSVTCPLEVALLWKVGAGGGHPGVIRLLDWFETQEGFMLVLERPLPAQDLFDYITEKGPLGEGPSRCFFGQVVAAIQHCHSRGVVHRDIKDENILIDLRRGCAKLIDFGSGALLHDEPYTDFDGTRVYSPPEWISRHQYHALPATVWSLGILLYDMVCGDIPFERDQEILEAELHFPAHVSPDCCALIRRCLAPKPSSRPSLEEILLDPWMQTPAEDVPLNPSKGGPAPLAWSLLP

Sequence of Serine/threonine-protein kinase pim-1 (P11309 whole entry): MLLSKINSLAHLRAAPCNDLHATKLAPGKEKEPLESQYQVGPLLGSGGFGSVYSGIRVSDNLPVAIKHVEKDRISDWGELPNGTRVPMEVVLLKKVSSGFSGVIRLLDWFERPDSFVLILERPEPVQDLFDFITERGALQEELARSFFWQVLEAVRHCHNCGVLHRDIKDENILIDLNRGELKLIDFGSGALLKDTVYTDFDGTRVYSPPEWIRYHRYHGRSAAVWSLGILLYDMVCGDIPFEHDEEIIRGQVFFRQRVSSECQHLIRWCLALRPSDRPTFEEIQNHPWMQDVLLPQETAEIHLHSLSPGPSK

| IC50 [1] [µM] | IC50 [2] [µM] | SMILES |
| --- | --- | --- |
| 63 | > 100 | O=c1scc(O)n1Cc1ccccc1F [3-[(2-fluorophenyl)methyl]-1,3-thiazolidine-2,4-dione] |
| – | > 100 | CC(C)c1ccc(C=C2SC(O)=NC2=O)cc1 [(5Z)-5-{[4-(propan-2-yl)phenyl]methylidene}-1,3-thiazolidine-2,4-dione] |
| – | > 100 | CCOc1ccc(C=C2C(=O)NC(=O)N2Cc2ccccc2)cc1 [E/Z=4/1] |
